In one assay the target is T1, human HIF-PHD2 (Homo sapiens, UniProt Q9GZT9).
T1 construct: purchased CrystalGenomics Ltd
Description: HIF-PHD inhibition assay (fluorescence polarization), human HIF-PHD2. The format is biochemical. The settings on record: 2-oxoglutaric acid 3.33 μmol/L. In outline:
(§1)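 Activity was derived as the fluorescence polarization (mP) after enzyme addition minus that measured before enzyme addition. Probe bore a 5′-fluoresceinamide (FAM) label with an aminocaproic acid (ACA) linker.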

The next assay deals with T2, human HIF-PHD3 (Homo sapiens, UniProt Q9H6Z9).
T2 construct: purchased CrystalGenomics Ltd
Briefly: HIF-PHD inhibition assay (fluorescence polarization), human HIF-PHD3. The class given is biochemical. The settings on record: 2-oxoglutaric acid 166 μmol/L. In outline:
as §1

In US20150239889A1, “PYRAZOLOPYRIMIDINE COMPOUND” (MITSUBISHI TANABE PHARMA CORPORATION, priority 2012, published 2015) one finds IC50 data, which are given here for 40 compounds.

T1 sequence (Q9GZT9 2-426 limits assumed): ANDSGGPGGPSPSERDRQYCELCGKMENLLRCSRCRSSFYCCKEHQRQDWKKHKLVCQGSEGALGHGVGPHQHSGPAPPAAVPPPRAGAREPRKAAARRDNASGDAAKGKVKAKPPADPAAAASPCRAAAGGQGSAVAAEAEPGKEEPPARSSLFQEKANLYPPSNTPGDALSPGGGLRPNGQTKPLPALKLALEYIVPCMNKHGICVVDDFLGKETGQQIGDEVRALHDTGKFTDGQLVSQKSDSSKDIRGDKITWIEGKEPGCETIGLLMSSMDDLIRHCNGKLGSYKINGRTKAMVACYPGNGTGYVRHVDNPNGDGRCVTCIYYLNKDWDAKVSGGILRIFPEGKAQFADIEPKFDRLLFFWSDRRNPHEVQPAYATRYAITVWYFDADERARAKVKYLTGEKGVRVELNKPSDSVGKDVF
T2 sequence (Q9H6Z9 whole entry): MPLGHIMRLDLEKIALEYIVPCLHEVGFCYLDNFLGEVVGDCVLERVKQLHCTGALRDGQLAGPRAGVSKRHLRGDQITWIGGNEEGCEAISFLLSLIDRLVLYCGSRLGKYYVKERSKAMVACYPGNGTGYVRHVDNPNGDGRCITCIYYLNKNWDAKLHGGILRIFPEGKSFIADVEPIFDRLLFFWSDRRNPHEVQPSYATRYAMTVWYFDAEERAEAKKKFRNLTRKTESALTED

For `O=C(O)c1cnn(-c2nc(O)c3c(cnn3C[C@H]3CCN(c4ccc(Cl)cc4)C3)n2)c1` [Example 428], the IC50 against human HIF-PHD2 worked out at 21 nM; against human HIF-PHD3 it was 230 nM.

For `O=C(O)c1cnn(-c2nc(O)c3c(cnn3C[C@H]3CCN(c4cccc(C(F)(F)F)c4)C3)n2)c1` [Example 429], the figures for the IC50 against human HIF-PHD2 and against human HIF-PHD3 were 22 nM and 540 nM, respectively.

With `O=C(O)c1cnn(-c2nc(O)c3c(cnn3C[C@H]3CCN(c4cccc(Cl)c4)C3)n2)c1` [Example 430], the IC50 on human HIF-PHD2 is 19 nM; against human HIF-PHD3, 240 nM.

On to `C[C@@H](C1CCN(c2ccc(C(F)(F)F)cc2)CC1)n1ncc2nc(-n3cc(C(=O)O)cn3)nc(O)c21` [Example 431], for which the values for the IC50 at human HIF-PHD2 and against human HIF-PHD3 were 17 nM and 280 nM, respectively.

On to `C[C@@H](C1CCN(c2ccc(Cl)cc2)CC1)n1ncc2nc(-n3cc(C(=O)O)cn3)nc(O)c21` [Example 432], for which the IC50 at human HIF-PHD2 came out at 17 nM; against human HIF-PHD3 it was 270 nM.

For the compound `C[C@@H](C1CCN(c2ccc(OC(F)(F)F)cc2)CC1)n1ncc2nc(-n3cc(C(=O)O)cn3)nc(O)c21` [Example 433], the values for the IC50 on human HIF-PHD2 and at human HIF-PHD3 were 31 nM and 540 nM, respectively.

With `C[C@@H](C1CCN(c2cccc(C(F)(F)F)c2)CC1)n1ncc2nc(-n3cc(C(=O)O)cn3)nc(O)c21` [Example 434], the IC50 is 28 nM at human HIF-PHD2 and 420 nM against human HIF-PHD3.

On to `C[C@@H](C1CCN(c2cccc(Cl)c2)CC1)n1ncc2nc(-n3cc(C(=O)O)cn3)nc(O)c21` [Example 435], for which the values for the IC50 against human HIF-PHD2 and at human HIF-PHD3 were 15 nM and 170 nM, respectively.

For the compound `O=C(O)c1cnn(-c2nc(O)c3c(cnn3C3CCN(c4ccc(C(F)(F)F)cc4)CC3)n2)c1` [Example 436], the IC50 was found to be 10 nM on human HIF-PHD2 and 330 nM at human HIF-PHD3.

Consider `O=C(O)c1cnn(-c2nc(O)c3c(cnn3[C@H]3CCN(c4ccc(C(F)(F)F)cc4)C3)n2)c1` [Example 437], for which the IC50 against human HIF-PHD2 amounted to 2.5 nM; against human HIF-PHD3, 180 nM.

In the case of `O=C(O)c1cnn(-c2nc(O)c3c(cnn3[C@H]3CCN(c4ccc(Cl)c(Cl)c4)C3)n2)c1` [Example 438], the results for the IC50 at human HIF-PHD2 and against human HIF-PHD3 were 13 nM and 140 nM, respectively.

On to `Cc1ccc([C@H](C)n2nc(F)c3nc(-n4cc(C(=O)O)cn4)nc(O)c32)cc1C` [Example 441], for which the IC50 at human HIF-PHD2 came out at 60 nM; on human HIF-PHD3, 430 nM.

As to `Cc1nn(Cc2ccc3ccccc3c2)c2c(O)nc(-n3cc(C(=O)O)cn3)nc12` [Example 445], the 50% inhibitory concentration (IC50) amounted to 20 nM against human HIF-PHD2 and 400 nM against human HIF-PHD3.

On to `Cc1nn([C@@H](C)c2ccc(F)cc2)c2c(O)nc(-n3cc(C(=O)O)cn3)nc12` [Example 448], for which the IC50 at human HIF-PHD2 came out at 62 nM; on human HIF-PHD3, 1900 nM.

With `Cc1nn([C@@H](C)c2cccc(F)c2)c2c(O)nc(-n3cc(C(=O)O)cn3)nc12` [Example 449], the half-maximal inhibitory concentration (IC50) on human HIF-PHD2 is > 300 nM; against human HIF-PHD3, 1200 nM.

In the case of `Cc1nn([C@@H](C)c2ccc(F)c(F)c2)c2c(O)nc(-n3cc(C(=O)O)cn3)nc12` [Example 450], the IC50 was 64 nM at human HIF-PHD2 and 580 nM at human HIF-PHD3.

Consider `Cc1nn([C@@H](C)c2ccc(F)cc2F)c2c(O)nc(-n3cc(C(=O)O)cn3)nc12` [Example 451], for which the values for the IC50 on human HIF-PHD2 and on human HIF-PHD3 were 91 nM and 840 nM, respectively.

In the case of `Cc1nn([C@@H](C)c2ccc(F)cc2Cl)c2c(O)nc(-n3cc(C(=O)O)cn3)nc12` [Example 452], the values for the IC50 against human HIF-PHD2 and against human HIF-PHD3 were 110 nM and 1600 nM, respectively.

In the case of `Cc1nn([C@@H](C)c2cc(F)ccc2F)c2c(O)nc(-n3cc(C(=O)O)cn3)nc12` [Example 453], the IC50 turned out to be 250 nM on human HIF-PHD2 and 1500 nM at human HIF-PHD3.

Regarding `CC[C@@H](c1ccc(Cl)c(Cl)c1)n1nc(C)c2nc(-n3cc(C(=O)O)cn3)nc(O)c21` [Example 455], the IC50 at human HIF-PHD2 amounted to 65 nM; against human HIF-PHD3, 790 nM.

Regarding `C[C@@H](c1ccc(C(F)(F)F)cc1)n1nc(C2CC2)c2nc(-n3cc(C(=O)O)cn3)nc(O)c21` [Example 456], the IC50 on human HIF-PHD2 came out at 53 nM; on human HIF-PHD3, 430 nM.

As for `C[C@@H](c1ccc(F)cc1)n1nc(C2CC2)c2nc(-n3cc(C(=O)O)cn3)nc(O)c21` [Example 457], the values for the IC50 at human HIF-PHD2 and against human HIF-PHD3 were 110 nM and 710 nM, respectively.

As to `C[C@@H](c1cccc(F)c1)n1nc(C2CC2)c2nc(-n3cc(C(=O)O)cn3)nc(O)c21` [Example 458], the IC50 at human HIF-PHD2 is > 300 nM; against human HIF-PHD3, 1100 nM.

Consider `C[C@@H](c1ccc(F)c(F)c1)n1nc(C2CC2)c2nc(-n3cc(C(=O)O)cn3)nc(O)c21` [Example 459], for which the IC50 at human HIF-PHD2 was determined as 110 nM; at human HIF-PHD3, 430 nM.

Consider `C[C@@H](c1cc(F)ccc1F)n1nc(C2CC2)c2nc(-n3cc(C(=O)O)cn3)nc(O)c21` [Example 461], for which the IC50 came to 230 nM against human HIF-PHD2 and 1600 nM on human HIF-PHD3.

Regarding `C[C@@H](c1ccc(F)c(Cl)c1)n1nc(C2CC2)c2nc(-n3cc(C(=O)O)cn3)nc(O)c21` [Example 462], the figures for the IC50 at human HIF-PHD2 and at human HIF-PHD3 were 81 nM and 990 nM, respectively.

Take `C[C@@H](c1ccc(C(F)(F)F)cc1)n1nc(C(F)(F)F)c2nc(-n3cc(C(=O)O)cn3)nc(O)c21` [Example 463]: the IC50 at human HIF-PHD2 was 65 nM; against human HIF-PHD3 it was 930 nM.

`O=C(O)c1cnn(-c2nc(O)c3c(n2)c(F)nn3CC2CCCCCC2)c1` [Example 464]: the values for the IC50 on human HIF-PHD2 and against human HIF-PHD3 were 17 nM and 440 nM, respectively.

As for `C[C@H](C1CCCCC1)n1nc(F)c2nc(-n3cc(C(=O)O)cn3)nc(O)c21` [Example 469], the IC50 at human HIF-PHD2 was determined as 76 nM; against human HIF-PHD3, 1200 nM.

With `Cc1nn(CC2CCC(F)(F)CC2)c2c(O)nc(-n3cc(C(=O)O)cn3)nc12` [Example 475], the IC50 against human HIF-PHD2 was 34 nM; against human HIF-PHD3 it was 270 nM.

With `C[C@H]1CC[C@H](n2nc(F)c3nc(-n4cc(C(=O)O)cn4)nc(O)c32)CC1` [Example 479], the IC50 on human HIF-PHD2 was determined as 42 nM; against human HIF-PHD3 it was 260 nM.

For the compound `CC[C@H]1CC[C@H](n2nc(F)c3nc(-n4cc(C(=O)O)cn4)nc(O)c32)CC1` [Example 480], the IC50 against human HIF-PHD2 came to 47 nM; against human HIF-PHD3 it was 670 nM.

Regarding `CC1(C)CCC(n2nc(F)c3nc(-n4cc(C(=O)O)cn4)nc(O)c32)CC1` [Example 481], the results for the IC50 at human HIF-PHD2 and at human HIF-PHD3 were 71 nM and 480 nM, respectively.

On to `O=C(O)c1cnn(-c2nc(O)c3c(n2)c(F)nn3C2CCCCCCC2)c1` [Example 482], for which the results for the IC50 on human HIF-PHD2 and against human HIF-PHD3 were 43 nM and 1300 nM, respectively.

Consider `Cc1nn([C@H]2CC[C@H](C)CC2)c2c(O)nc(-n3cc(C(=O)O)cn3)nc12` [Example 483], for which the results for the IC50 against human HIF-PHD2 and on human HIF-PHD3 were 110 nM and 1200 nM, respectively.

In the case of `Cn1ncc2nc(-n3cc(C(=O)O)cn3)nc(O)c21` [Example 485], the IC50 was 140 nM against human HIF-PHD2 and > 3000 nM on human HIF-PHD3.

Regarding `CC(C)n1ncc2nc(-n3cc(C(=O)O)cn3)nc(O)c21` [Example 486], the results for the IC50 against human HIF-PHD2 and against human HIF-PHD3 were 120 nM and 2200 nM, respectively.

For `CCC(CC)n1ncc2nc(-n3cc(C(=O)O)cn3)nc(O)c21` [Example 487], the IC50 on human HIF-PHD2 was found to be 81 nM; against human HIF-PHD3 it was 530 nM.

Turning to `CCCC(CCC)n1ncc2nc(-n3cc(C(=O)O)cn3)nc(O)c21` [Example 488], the values for the IC50 against human HIF-PHD2 and on human HIF-PHD3 were 59 nM and 840 nM, respectively.

In the case of `CC(C)C(C(C)C)n1ncc2nc(-n3cc(C(=O)O)cn3)nc(O)c21` [Example 489], the IC50 against human HIF-PHD2 came to 150 nM; against human HIF-PHD3 it was 900 nM.
